Legend:
Assay in all cases: Bliss interaction score (quartile over a dose matrix) (fitness difference); higher = more antagonism (negative = synergy)
B. subtilis 168 = system: B. subtilis 168
How it was run: (§1)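 The Bliss score was calculated by subtracting the expected fitness, the product of single-drug values, from the observed fitness. OD595 at entry into stationary phase, over the plate's robust no-drug mean and capped at 1, served as the fitness readout. Single-drug values were inferred from combination data, and scores are summarised by quartiles across technical, biological and donor/recipient replicates.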

S. aureus DSM 20231 = system: S. aureus DSM 20231
How it was run: as §1

S. aureus Newman = system: S. aureus Newman
How it was run: as §1

S. pneumoniae D39V = system: S. pneumoniae D39V
How it was run: as §1
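Note: first quartile when negative (synergy) and third quartile when positive (antagonism).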

SMILES | Bliss interaction score (B. subtilis 168; main component drawn) | Bliss interaction score (S. aureus DSM 20231; main component drawn) | Bliss interaction score (S. aureus Newman; main component drawn) | Bliss interaction score (S. pneumoniae D39V; main component drawn) | Bliss interaction score (B. subtilis 168) | Bliss interaction score (S. aureus DSM 20231) | Bliss interaction score (S. aureus Newman) | Bliss interaction score (S. pneumoniae D39V)
CC[C@H](C)[C@H](N)C1=N[C@H](C(=O)N[C@@H](CC(C)C)C(=O)N[C@H](CCC(=O)O)C(=O)N[C@H](C(=O)N[C@H]2CCCCNC(=O)[C@H](CC(N)=O)NC(=O)[C@@H](CC(=O)O)NC(=O)[C@H](Cc3cnc[nH]3)NC(=O)[C@@H](Cc3ccccc3)NC(=O)[C@H]([C@@H](C)CC)NC(=O)[C@@H](CCCN)NC2=O)[C@@H](C)CC)CS1 [Bacitracin] + CO[C@H]1/C=C/O[C@@]2(C)Oc3c(C)c(O)c4c(O)c(c(/C=N/N5CCN(C)CC5)c(O)c4c3C2=O)NC(=O)/C(C)=C\C=C\[C@H](C)[C@H](O)[C@@H](C)[C@@H](O)[C@@H](C)[C@H](OC(C)=O)[C@@H]1C [Rifampicin] | -0.0806 | 0.0174 | -0.0236 | 0.104 | – | – | – | –
CC[C@H](C)[C@H](N)C1=N[C@H](C(=O)N[C@@H](CC(C)C)C(=O)N[C@H](CCC(=O)O)C(=O)N[C@H](C(=O)N[C@H]2CCCCNC(=O)[C@H](CC(N)=O)NC(=O)[C@@H](CC(=O)O)NC(=O)[C@H](Cc3cnc[nH]3)NC(=O)[C@@H](Cc3ccccc3)NC(=O)[C@H]([C@@H](C)CC)NC(=O)[C@@H](CCCN)NC2=O)[C@@H](C)CC)CS1 [Bacitracin] + C[C@@H](O)[C@H]1C(=O)N2C(C(=O)O)=C(SCCNC=N)C[C@H]12 [Imipenem] | -0.359 | 0.0207 | -0.0113 | -0.0576 | – | – | – | –
CC[C@H](C)[C@H](N)C1=N[C@H](C(=O)N[C@@H](CC(C)C)C(=O)N[C@H](CCC(=O)O)C(=O)N[C@H](C(=O)N[C@H]2CCCCNC(=O)[C@H](CC(N)=O)NC(=O)[C@@H](CC(=O)O)NC(=O)[C@H](Cc3cnc[nH]3)NC(=O)[C@@H](Cc3ccccc3)NC(=O)[C@H]([C@@H](C)CC)NC(=O)[C@@H](CCCN)NC2=O)[C@@H](C)CC)CS1 [Bacitracin] + Clc1ccc(COC(Cn2ccnc2)c2ccc(Cl)cc2Cl)c(Cl)c1 [Miconazole] | -0.0878 | -0.0238 | -0.0691 | 0.113 | – | – | – | –
CC[C@H](C)[C@H](N)C1=N[C@H](C(=O)N[C@@H](CC(C)C)C(=O)N[C@H](CCC(=O)O)C(=O)N[C@H](C(=O)N[C@H]2CCCCNC(=O)[C@H](CC(N)=O)NC(=O)[C@@H](CC(=O)O)NC(=O)[C@H](Cc3cnc[nH]3)NC(=O)[C@@H](Cc3ccccc3)NC(=O)[C@H]([C@@H](C)CC)NC(=O)[C@@H](CCCN)NC2=O)[C@@H](C)CC)CS1 [Bacitracin] + N[C@@H]1CONC1=O [CycloserineD] | 0.0719 | -0.0841 | 0.0872 | 0.118 | – | – | – | –
CC[C@H](C)[C@H](N)C1=N[C@H](C(=O)N[C@@H](CC(C)C)C(=O)N[C@H](CCC(=O)O)C(=O)N[C@H](C(=O)N[C@H]2CCCCNC(=O)[C@H](CC(N)=O)NC(=O)[C@@H](CC(=O)O)NC(=O)[C@H](Cc3cnc[nH]3)NC(=O)[C@@H](Cc3ccccc3)NC(=O)[C@H]([C@@H](C)CC)NC(=O)[C@@H](CCCN)NC2=O)[C@@H](C)CC)CS1 [Bacitracin] + O=C1CN(/N=C/c2ccc([N+](=O)[O-])o2)C(=O)N1 [Nitrofurantoin] | -0.192 | -0.0336 | 0.0654 | -0.0709 | – | – | – | –
CC[C@H](C)[C@H](N)C1=N[C@H](C(=O)N[C@@H](CC(C)C)C(=O)N[C@H](CCC(=O)O)C(=O)N[C@H](C(=O)N[C@H]2CCCCNC(=O)[C@H](CC(N)=O)NC(=O)[C@@H](CC(=O)O)NC(=O)[C@H](Cc3cnc[nH]3)NC(=O)[C@@H](Cc3ccccc3)NC(=O)[C@H]([C@@H](C)CC)NC(=O)[C@@H](CCCN)NC2=O)[C@@H](C)CC)CS1 [Bacitracin] + O=C(O)[C@H]1/C(=C/CO)O[C@@H]2CC(=O)N21 [Clavulanic] | 0.107 | -0.0375 | 0.241 | -0.0867 | – | – | – | –
CC[C@H](C)[C@H](N)C1=N[C@H](C(=O)N[C@@H](CC(C)C)C(=O)N[C@H](CCC(=O)O)C(=O)N[C@H](C(=O)N[C@H]2CCCCNC(=O)[C@H](CC(N)=O)NC(=O)[C@@H](CC(=O)O)NC(=O)[C@H](Cc3cnc[nH]3)NC(=O)[C@@H](Cc3ccccc3)NC(=O)[C@H]([C@@H](C)CC)NC(=O)[C@@H](CCCN)NC2=O)[C@@H](C)CC)CS1 [Bacitracin] + Oc1cc(Cl)ccc1Oc1ccc(Cl)cc1Cl [Triclosan] | -0.136 | 0.0303 | -0.0148 | 0.056 | – | – | – | –
CC[C@H]1OC(=O)[C@H](C)[C@@H](O[C@H]2C[C@@](C)(OC)[C@@H](O)[C@H](C)O2)[C@H](C)[C@@H](O[C@@H]2O[C@H](C)C[C@H](N(C)C)[C@H]2O)[C@](C)(O)C[C@@H](C)C(=O)[C@H](C)[C@@H](O)[C@]1(C)O [Erythromycin] + C/C(=C\C(=O)OCCCCCCCCC(=O)O)C[C@@H]1OC[C@H](C[C@@H]2O[C@H]2[C@@H](C)[C@H](C)O)[C@@H](O)[C@H]1O [Pseudomonic acid] | – | – | – | – | 0.0626 | -0.0124 | -0.0171 | 0.0664
CC[C@H]1OC(=O)[C@H](C)[C@@H](O[C@H]2C[C@@](C)(OC)[C@@H](O)[C@H](C)O2)[C@H](C)[C@@H](O[C@@H]2O[C@H](C)C[C@H](N(C)C)[C@H]2O)[C@](C)(O)C[C@@H](C)C(=O)[C@H](C)[C@@H](O)[C@]1(C)O [Erythromycin] + CC1(C)S[C@@H]2[C@H](NC(=O)Cc3ccccc3)C(=O)N2[C@H]1C(=O)O [PenicillinG] | – | – | – | – | 0.0463 | 0.0265 | -0.0654 | -0.0381
CC[C@H]1OC(=O)[C@H](C)[C@@H](O[C@H]2C[C@@](C)(OC)[C@@H](O)[C@H](C)O2)[C@H](C)[C@@H](O[C@@H]2O[C@H](C)C[C@H](N(C)C)[C@H]2O)[C@](C)(O)C[C@@H](C)C(=O)[C@H](C)[C@@H](O)[C@]1(C)O [Erythromycin] + CC1=C\[C@@H](O)CC(=O)Cc2nc(co2)C(=O)N2CCC=C2C(=O)O[C@H](C(C)C)[C@H](C)/C=C/C(=O)NC\C=C\1 [Virginiamycin M1] | – | – | – | – | -0.0578 | 0.0769 | 0.066 | 0.0687
CC[C@H]1OC(=O)[C@H](C)[C@@H](O[C@H]2C[C@@](C)(OC)[C@@H](O)[C@H](C)O2)[C@H](C)[C@@H](O[C@@H]2O[C@H](C)C[C@H](N(C)C)[C@H]2O)[C@](C)(O)C[C@@H](C)C(=O)[C@H](C)[C@@H](O)[C@]1(C)O [Erythromycin] + CC(=O)NC[C@H]1CN(c2ccc(N3CCOCC3)c(F)c2)C(=O)O1 [Linezolid] | – | – | – | – | -0.0534 | -0.018 | -0.0521 | 0.068
CC[C@H]1OC(=O)[C@H](C)[C@@H](O[C@H]2C[C@@](C)(OC)[C@@H](O)[C@H](C)O2)[C@H](C)[C@@H](O[C@@H]2O[C@H](C)C[C@H](N(C)C)[C@H]2O)[C@](C)(O)C[C@@H](C)C(=O)[C@H](C)[C@@H](O)[C@]1(C)O [Erythromycin] + CC(=O)O[C@H]1C[C@@]2(C)[C@@H](C[C@@H](O)[C@H]3[C@@]4(C)CC[C@@H](O)[C@@H](C)[C@@H]4CC[C@@]32C)/C1=C(\CCC=C(C)C)C(=O)O [Fusidic acid] | – | – | – | – | -0.057 | 0.0374 | -0.0241 | -0.1
CC[C@H]1OC(=O)[C@H](C)[C@@H](O[C@H]2C[C@@](C)(OC)[C@@H](O)[C@H](C)O2)[C@H](C)[C@@H](O[C@@H]2O[C@H](C)C[C@H](N(C)C)[C@H]2O)[C@](C)(O)C[C@@H](C)C(=O)[C@H](C)[C@@H](O)[C@]1(C)O [Erythromycin] + CC(C1CCC(C(O1)OC2C(CC(C(C2O)OC3C(C(C(CO3)(C)O)NC)O)N)N)N)NC [Gentamicin] | 0.118 | 0.0847 | 0.0427 | 0.0656 | – | – | – | –
CC[C@H]1OC(=O)[C@H](C)[C@@H](O[C@H]2C[C@@](C)(OC)[C@@H](O)[C@H](C)O2)[C@H](C)[C@@H](O[C@@H]2O[C@H](C)C[C@H](N(C)C)[C@H]2O)[C@](C)(O)C[C@@H](C)C(=O)[C@H](C)[C@@H](O)[C@]1(C)O [Erythromycin] + CCC(C)C1C(=O)NC(=C)C(=O)NC(C(=O)NC(CSCC(C(=O)N1)NC(=O)/C(=C/C)/NC(=O)C(C(C)CC)N)C(=O)NC2C(SCC(NC(=O)CNC(=O)C3CCCN3C2=O)C(=O)NC(CCCCN)C(=O)NC4C(SCC(NC(=O)CNC(=O)C(NC(=O)C(NC(=O)C(NC(=O)CNC4=O)C)CC(C)C)CCSC)C(=O)NC(CC(=O)N)C(=O)NC(CCSC)C(=O)NC(CCCCN)C(=O)NC5C(SCC6C(=O)NC(C(=O)NC(CSC(C(C(=O)N6)NC(=O)C(NC5=O)C)C)C(=O)NC(CO)C(=O)NC(C(C)CC)C(=O)NC(CC7=CN=CN7)C(=O)NC(C(C)C)C(=O)NC(=C)C(=O)NC(CCCCN)C(=O)O)CC8=CN=CN8)C)C)C)CC(C)C [Nisin] | 0.0295 | -0.029 | -0.028 | -0.0423 | – | – | – | –
CC[C@H]1OC(=O)[C@H](C)[C@@H](O[C@H]2C[C@@](C)(OC)[C@@H](O)[C@H](C)O2)[C@H](C)[C@@H](O[C@@H]2O[C@H](C)C[C@H](N(C)C)[C@H]2O)[C@](C)(O)C[C@@H](C)C(=O)[C@H](C)[C@@H](O)[C@]1(C)O [Erythromycin] + CCCCCCCCCC(=O)N[C@@H]1[C@H]([C@@H]([C@H](O[C@H]1OC2=C3C=C4C=C2OC5=C(C=C(C=C5)[C@H]([C@H]6C(=O)N[C@@H](C7=C(C(=CC(=C7)O)OC8[C@H]([C@H]([C@@H]([C@H](O8)CO)O)O)O)C9=C(C=CC(=C9)[C@H](C(=O)N6)NC(=O)[C@@H]4NC(=O)[C@@H]1C2=CC(=CC(=C2)OC2=C(C=CC(=C2)[C@H](C(=O)N[C@H](CC2=CC(=C(O3)C=C2)Cl)C(=O)N1)N)O)O)O)C(=O)O)O[C@H]1[C@@H]([C@H]([C@@H]([C@H](O1)CO)O)O)NC(=O)C)Cl)CO)O)O [Teicoplanin] | -0.046 | 0.0621 | 0.154 | 0.0581 | – | – | – | –
CC[C@H]1OC(=O)[C@H](C)[C@@H](O[C@H]2C[C@@](C)(OC)[C@@H](O)[C@H](C)O2)[C@H](C)[C@@H](O[C@@H]2O[C@H](C)C[C@H](N(C)C)[C@H]2O)[C@](C)(O)C[C@@H](C)C(=O)[C@H](C)[C@@H](O)[C@]1(C)O [Erythromycin] + CCC[C@@H]1C[C@@H](C(=O)N[C@@H]([C@H]2O[C@H](SC)[C@H](O)[C@@H](O)[C@H]2O)[C@@H](C)O)N(C)C1 [Lincomycin] | – | – | – | – | 0.107 | -0.0609 | -0.1 | 0.0856
CC[C@H]1OC(=O)[C@H](C)[C@@H](O[C@H]2C[C@@](C)(OC)[C@@H](O)[C@H](C)O2)[C@H](C)[C@@H](O[C@@H]2O[C@H](C)C[C@H](N(C)C)[C@H]2O)[C@](C)(O)C[C@@H](C)C(=O)[C@H](C)[C@@H](O)[C@]1(C)O [Erythromycin] + CCN(CC)CCOC(=O)c1ccc(N)cc1 [Procaine] | – | – | – | – | -0.0671 | -0.0573 | 0.0663 | -0.048
CC[C@H]1OC(=O)[C@H](C)[C@@H](O[C@H]2C[C@@](C)(OC)[C@@H](O)[C@H](C)O2)[C@H](C)[C@@H](O[C@@H]2O[C@H](C)C[C@H](N(C)C)[C@H]2O)[C@](C)(O)C[C@@H](C)C(=O)[C@H](C)[C@@H](O)[C@]1(C)O [Erythromycin] + CC[C@H]1OC(=O)[C@H](C)C(=O)[C@H](C)[C@@H](O[C@@H]2O[C@H](C)C[C@H](N(C)C)[C@H]2O)[C@](C)(OC)C[C@@H](C)C(=O)[C@H](C)[C@H]2N(CCCCn3cnc(-c4cccnc4)c3)C(=O)O[C@]12C [Telithromycin] | – | – | – | – | -0.0361 | -0.0237 | -0.0283 | 0.0262

— the supplement of paper PMC10627819
